Consider 29 molecules from patent US9000045B2, “CETP activity inhibitors” (Japan Tobacco Inc., priority 1997, dated 2015).

For test [1], the target named is T1, CETP (Homo sapiens, UniProt P11597).
T1 sequence (P11597 18-493): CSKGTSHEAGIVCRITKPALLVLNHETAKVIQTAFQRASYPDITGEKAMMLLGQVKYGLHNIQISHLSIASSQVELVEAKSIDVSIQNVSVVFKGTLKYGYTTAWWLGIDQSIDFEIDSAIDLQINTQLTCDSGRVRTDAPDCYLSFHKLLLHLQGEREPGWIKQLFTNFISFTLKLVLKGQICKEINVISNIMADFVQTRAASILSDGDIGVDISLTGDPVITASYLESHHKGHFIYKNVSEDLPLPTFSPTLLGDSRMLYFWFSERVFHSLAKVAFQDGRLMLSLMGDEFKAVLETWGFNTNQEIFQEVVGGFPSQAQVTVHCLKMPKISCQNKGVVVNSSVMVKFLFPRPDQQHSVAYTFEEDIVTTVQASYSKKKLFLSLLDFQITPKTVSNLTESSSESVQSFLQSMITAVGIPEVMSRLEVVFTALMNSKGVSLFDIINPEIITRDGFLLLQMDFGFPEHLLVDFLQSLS
Description: In vitro CETP activity inhibitory effect in whole plasma. It is filed as biochemical. Set-up: Plasma containing [^3H]CE-HDL3 (600,000 dpm/ml) was prepared by adding donor lipoprotein obtained in the above (1) to plasma from healthy subjects; from tissue; host or cells: whole plasma of healthy subjects. The conditions noted are these: plasma from healthy subjects containing [3H]CE-HDL3, incubated 4 hours at 37° C.; read-out: CETP activity inhibition in whole plasma IC50. The method in brief: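 HDL3 was labelled with tritiated cholesterol (10 nM) for 18 h at 37° C in PBS with EDTA (pH 7.4). Test samples were in 1:1 N-methylpyrrolidone/PEG 400 and assayed in whole plasma. IC50 was calculated from % inhibition of CETP activity.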

The target in test [2] is T1, CETP. In words: Ex vivo CETP activity inhibitory effect of plasma from transgenic mice. The following applies: mouse, po, p.o., 6 hours after administration, transgenic mice with human CETP gene, read-out: CETP activity inhibitory rate in plasma from transgenic mouse. Also on record: from tissue; host or cells: plasma of transgenic mice carrying the human CETP gene. As to the method: Potassium bromide (KBr) was added to the plasma of healthy subjects (40 ml) to adjust specific gravity to d=1.125 g/ml. Density gradient centrifugation (227,000×g, 4° C., 17 hours) was conducted to obtain a fraction with specific gravity d>1.125 g/ml (HDL3 fraction). The fraction thus obtained was dialyzed against a PBS solution [10 mM Na2HPO4/10 mM NaH2PO4/0.15 M NaCl/1 mM EDTA (pH 7.4)]. Then, tritium-labeled cholesterol (10 nM) (50.3 Ci/mM) was dissolved in 95% ethanol and added gradually to the above HDL3 fraction under stirring. The solution was incubated for 18 hours at 37° C. [Tritium-labeled cholesterol was esterified by this procedure by the action of lecithin:cholesterol acyltransferase (LCAT) present on the surface of HDL3 and taken up into the interior of HDL3 as tritium-labeled cholesterylester ([^3H]CE)]. After incubation, KBr was added and specific gravity was adjusted to d=1.21 g/ml. Density gradient centrifugation (227,000×g, 4° C., 17 hours) was conducted and the fraction with d<1.21 g/ml was harvested. The fraction thus obtained was dialyzed against the above PBS solution to obtain HDL3 that took up [^3H]CE ([^3H]CE-HDL3, specific gravity: 1.125<d<1.21, specific activity: 101,000 dpm/nM), which served as donor lipoprotein.
Physiological saline (specific gravity d=1.006 g/ml) was layered upon the plasma of healthy subjects (100 ml). Density gradient centrifugation (227,000×g, 4° C., 4 hours) was conducted and the fraction with specific gravity d>1.006 g/ml was harvested. KBr was added to the fraction thus obtained to adjust specific gravity to d=1.063 g/ml and density gradient centrifugation (227,000×g, 4° C., 20 hours) was conducted to harvest the fraction with specific gravity […]. The thus-obtained fraction was dialyzed against the above PBS solution to obtain fractions containing IDL and LDL (specific gravity: 1.006<d<1.063), which served as acceptor lipoprotein.
Samples were suspended in a 0.5% methylcellulose solution and administered orally using a plastic probe to transgenic mice having introduced human CETP gene (hereafter referred to as mice; prepared using the method described in Japanese Patent Application No. Hei 8-130660), which had been fasted overnight. Blood was collected before administration, and 6 hours after administration CETP activity in the plasma was determined using the following method.
Donor lipoprotein ([^3H]CE-HDL3, containing 0.21 μg cholesterol) obtained in the above (1), acceptor lipoprotein obtained in the above (2) (containing 21 μg of cholesterol), and 0.9 μl of mice plasma were added to microtubes. A total volume was adjusted to 600 μl/tube with a TBS solution [10 mM Tris/0.15 M NaCl (pH 7.4)]. The microtubes were incubated for 15 hours at 37° C. or 4° C. Then, an ice-cooled TBS solution (400 μl/tube) and a 0.3% dextran sulfate solution (100 μl/tube) containing 0.15 M magnesium chloride were added to the microtubes and mixed well. After allowing the microtubes to stand for 30 minutes at 4° C., centrifugation (8,000 rpm, 4° C., 10 minutes) was carried out and radioactivity of the resulting supernatant (HDL fraction) was determined with a scintillation counter.

With `CC(=O)NC1(C(=O)Sc2ccccc2NC(=O)C2(CCC(C)C)CCCCC2)CCCCC1` [Example 25-56], on CETP [1], the concentration for half-maximal inhibition (IC50) (commonly the point on the concentration scale where inhibition reaches its midpoint) worked out at 7 µM. The inhibition at 30 mg/kg at CETP [2] was 24%.

`CSCC[C@H](NC(C)=O)C(=O)Sc1ccccc1NC(=O)C1(CCC(C)C)CCCCC1` [Example 25-57]: at CETP [1], the IC50 stood at 7 µM. Moreover, on CETP [2], the inhibition at 10 mg/kg came to 18% and the inhibition at 30 mg/kg was 46%.

As for `CC(C)CCC1(C(=O)Nc2ccccc2SC(=O)/C=C/c2ccccc2)CCCCC1` [Example 25-59], the IC50 on CETP [1] is 8 µM. For the same molecule, at CETP [2], the inhibition at 10 mg/kg turned out to be 20% and the inhibition at 30 mg/kg was found to be 37%.

As for `CC(C)CCC1(C(=O)Nc2ccccc2SC(=O)Cc2ccccc2)CCCC1` [Example 25-61], the IC50 on CETP [1] was 5 µM. At CETP [2], the inhibition at 30 mg/kg came to 28%.

For the molecule `COc1ccccc1C(=O)Sc1ccccc1NC(=O)C1(CCC(C)C)CCCC1` [Example 25-63], the IC50 on CETP [1] amounted to 21 µM. Moreover, on CETP [2], the inhibition at 100 mg/kg worked out at 25%.

Regarding `CC(=O)Sc1cc(Cl)c(Cl)cc1NC(=O)C1(CCC(C)C)CCCCC1` [Example 25-84], at CETP [1], the IC50 came to 10 µM. The inhibition at 100 mg/kg on CETP [2] amounted to 17%.

Consider `CC(C)CCC1(C(=O)Nc2ccccc2SC(=O)NC(C)(C)C)CCCCC1` [Example 25-97], for which, at CETP [1], the 50% inhibitory concentration (IC50) was found to be 9 µM. For the same molecule, on CETP [2], the inhibition at 100 mg/kg turned out to be 19%.

In the case of `COc1ccc(NC(=O)Sc2ccccc2NC(=O)C2(CCC(C)C)CCCCC2)cc1` [Example 25-100], the IC50 at CETP [1] was found to be 16 µM. Besides, the inhibition at 30 mg/kg at CETP [2] amounted to 25%.

For `CC(C)CCC1(C(=O)Nc2ccccc2SC(=O)N(C(=O)Nc2ccccc2)c2ccccc2)CCCCC1` [Example 25-101], the IC50 at CETP [1] stood at 7 µM. Also, the inhibition at 30 mg/kg at CETP [2] amounted to 8%.

As for `CC(C)CCC1(C(=O)Nc2cc(Cl)c(Cl)cc2SC(=O)NC(C)(C)C)CCCCC1` [Example 25-102], on CETP [1], the IC50 came to 8 µM. Further, the inhibition at 100 mg/kg at CETP [2] turned out to be 9%.

Regarding `CC(C)CCC1(C(=O)Nc2ccccc2SC(=O)NC(C)(C)C)CCCC1` [Example 25-105], at CETP [1], the IC50 turned out to be 6 µM. The inhibition at 100 mg/kg on CETP [2] was found to be 14%.

Take `CC(C)CCC1(C(=O)Nc2ccccc2SC(=O)Nc2ccccc2)CCCC1` [Example 25-106]: the IC50 at CETP [1] is 10 µM. For the same molecule, the inhibition at 30 mg/kg on CETP [2] came to 29%.

As for `COc1ccc(NC(=O)Sc2ccccc2NC(=O)C2(CCC(C)C)CCCC2)cc1` [Example 25-107], the IC50 at CETP [1] was determined as 11 µM. Moreover, at CETP [2], the inhibition at 30 mg/kg was found to be 22%.

In the case of `CC(C)CCC1(C(=O)Nc2cc(Cl)c(Cl)cc2SC(=O)NC(C)(C)C)CCCC1` [Example 25-108], the IC50 on CETP [1] was found to be 7 µM. Besides, on CETP [2], the inhibition at 100 mg/kg was determined as 8%.

Regarding `CCC(CC)CC1(C(=O)Nc2ccccc2SC(=O)C(C)C)CCCCC1` [Example 26, S-[2-[1-(2-ethylbutyl)cyclohexanecarbonylamino]-phenyl]2-methylthiopropionate], the IC50 at CETP [1] worked out at 7 µM. The inhibition at 30 mg/kg on CETP [2] worked out at 44%.

Consider `CC(C)CC1(C(=O)Nc2ccccc2SC(=O)C(C)C)CCCCC1` [Example 27, S-[2-(1-isobutylcyclohexanecarbonylamino)phenyl]2-methylthiopropionate], for which the IC50 on CETP [1] is 7 µM. The inhibition at 30 mg/kg at CETP [2] amounted to 31%.

With `CCC(CC)CC1(C(=O)Nc2ccccc2SC(=O)C2CCN(C(C)=O)CC2)CCCCC1` [Example 28, S[2-[1-(2-ethylbutyl)cyclohexanecarbonylamino)-phenyl]1-acetylpiperidine-4-thiocarboxylate], on CETP [1], the IC50 was determined as 6 µM. The inhibition at 30 mg/kg at CETP [2] amounted to 36%.

On to `CC(C)CCC1(C(=O)Nc2ccccc2SC(=O)C(C)(C)C)CCCCC1` [Example 33], for which the IC50 at CETP [1] came out at 61 µM. For the same molecule, at CETP [2], the inhibition at 10 mg/kg is 23%, the inhibition at 30 mg/kg amounted to 39% and the inhibition at 100 mg/kg came out at 52%. At CETP [2] (300 mg/kg), the inhibition at 300 mg/kg was determined as 55%.

Consider `CC(=O)N[C@@H](Cc1ccccc1)C(=O)Sc1ccccc1NC(=O)C1(CCC(C)C)CCCCC1` [Example 34], for which the IC50 on CETP [1] stood at 9 µM. For the same molecule, on CETP [2], the inhibition at 30 mg/kg was 4%.

Consider `CC(C)CCC1(C(=O)Nc2ccccc2SC(=O)CCl)CCCCC1` [Example 36], for which the IC50 at CETP [1] amounted to 16 µM. For the same molecule, at CETP [2], the inhibition at 30 mg/kg is 19%.

For the molecule `COCC(=O)Sc1ccccc1NC(=O)C1(CCC(C)C)CCCCC1` [Example 37], the IC50 on CETP [1] stood at 7 µM. At CETP [2], the inhibition at 10 mg/kg is 18%, the inhibition at 30 mg/kg was found to be 42% and the inhibition at 100 mg/kg came out at 47%.

In the case of `CCC(=O)Sc1ccccc1NC(=O)C1(CCC(C)C)CCCCC1` [Example 38], at CETP [1], the IC50 is 6 µM. At CETP [2], the inhibition at 10 mg/kg stood at 15% and the inhibition at 30 mg/kg amounted to 40%.

With `CC(C)CCC1(C(=O)Nc2ccccc2SC(=O)COc2ccccc2)CCCCC1` [Example 39], on CETP [1], the IC50 was 11 µM. At CETP [2], the inhibition at 10 mg/kg came out at 17% and the inhibition at 30 mg/kg is 41%.

On to `CC(C)CCC1(C(=O)Nc2ccccc2SC(=O)C(C)C)CCCCC1` [Example 40], for which the concentration for half-maximal inhibition (IC50) on CETP [1] turned out to be 23 µM. At CETP [2], the inhibition at 10 mg/kg was found to be 20%, the inhibition at 30 mg/kg came out at 48% and the inhibition at 100 mg/kg was 64%.

Regarding `CC(C)CCC1(C(=O)Nc2ccccc2SC(=O)COc2ccc(Cl)cc2)CCCCC1` [Example 41], the IC50 on CETP [1] amounted to 7 µM. In addition, on CETP [2], the inhibition at 10 mg/kg turned out to be 27% and the inhibition at 30 mg/kg amounted to 42%.

As to `CC(C)CCC1(C(=O)Nc2ccccc2SC(=O)C2CC2)CCCCC1` [Example 42], the IC50 at CETP [1] came to 9 µM. In addition, on CETP [2], the inhibition at 10 mg/kg was 31% and the inhibition at 30 mg/kg was 38%.

Consider `CC(=O)N[C@@H](CCC(N)=O)C(=O)Sc1ccccc1NC(=O)C1(CCC(C)C)CCCCC1` [Example 45], for which, at CETP [1], the IC50 amounted to 7 µM. Besides, on CETP [2], the inhibition at 10 mg/kg was determined as 18% and the inhibition at 30 mg/kg was determined as 36%.

In the case of `CC(C)CCC1(C(=O)Nc2ccccc2SC(=O)C(C)(C)O)CCCCC1` [Example 46], the IC50 at CETP [1] was found to be 5 µM. Besides, at CETP [2], the inhibition at 10 mg/kg came to 22% and the inhibition at 30 mg/kg is 48%.

As for `CC(C)CCC1(C(=O)Nc2ccccc2SC(=O)C2(N)CCCCC2)CCCCC1` [Example 47], at CETP [1], the IC50 is 6 µM. Further, the inhibition at 30 mg/kg on CETP [2] turned out to be 31%.
